Measurements: patent US11964973B2 (priority 2019, dated 2024)
Where two headings read alike, the source gives them in different places.

Experiments:
DGKα = DGKα (Homo sapiens (Human), UniProt P23743); test: biochemical; type: biochemical
human DGKζ = human DGKζ (Homo sapiens (Human), UniProt Q13574); test: biochemical; type: biochemical; conditions: liposome (LIPGLO) assay
[1] = system: Human venous whole blood (IFN-γ); test: Human whole blood IFN-γ assay; type: cell-based
Description: Assay 10: Human Whole Blood IFN-γ Assay
Human venous whole blood (22.5 μL per well), obtained from healthy donors, was pre-treated with compounds for one hour at 37° C. in a humidified 95% air/5% CO2 incubator. The blood was stimulated with 2.5 μL anti-human CD3 and anti-CD28 mAb at a final concentration of 1 μg/mL each for 24 hours at 37° C. IFN-γ in the supernatants was measured using AlphLISA kit (Cat #AL217).

[2] = system: human venous whole blood, CD8 positive population (pERK); test: DGK human whole blood pERK assay; type: cell-based; conditions: for EC50: human whole blood pERK, read-out: DGK HWB; for IC50: read-out: DGK HWB pERK IC50
How it was run: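 Read-out is the pERK-positive fraction of CD8+ cells measured by flow cytometry. Donor venous blood (heparin) saw compound for one hour at 37° C before a 15-minute anti-CD3 challenge (1 μg/mL final) with cross-linking anti-mouse IgG.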

[3] = liposome (LIPGLO) assay, read-out: DGKα LIPGLO IC50
[4] = Homo sapiens, 24 h, human whole blood, anti-CD3 plus anti-CD28, 24 hours, read-out: INFg Whole Blood Normalized Agonist EC50
[5] = human whole blood, anti-CD3 plus anti-CD28, 24 hours, read-out: INFg Whole Blood Normalized Agonist EC50
[6] = human whole blood IFN-γ, read-out: INFg Whole Blood
[7] = human whole blood, CD8 positive population
[8] = Homo sapiens, human whole blood IFN-γ, read-out: INFg Whole Blood

Chain of DGKα (P23743 whole entry, looked up): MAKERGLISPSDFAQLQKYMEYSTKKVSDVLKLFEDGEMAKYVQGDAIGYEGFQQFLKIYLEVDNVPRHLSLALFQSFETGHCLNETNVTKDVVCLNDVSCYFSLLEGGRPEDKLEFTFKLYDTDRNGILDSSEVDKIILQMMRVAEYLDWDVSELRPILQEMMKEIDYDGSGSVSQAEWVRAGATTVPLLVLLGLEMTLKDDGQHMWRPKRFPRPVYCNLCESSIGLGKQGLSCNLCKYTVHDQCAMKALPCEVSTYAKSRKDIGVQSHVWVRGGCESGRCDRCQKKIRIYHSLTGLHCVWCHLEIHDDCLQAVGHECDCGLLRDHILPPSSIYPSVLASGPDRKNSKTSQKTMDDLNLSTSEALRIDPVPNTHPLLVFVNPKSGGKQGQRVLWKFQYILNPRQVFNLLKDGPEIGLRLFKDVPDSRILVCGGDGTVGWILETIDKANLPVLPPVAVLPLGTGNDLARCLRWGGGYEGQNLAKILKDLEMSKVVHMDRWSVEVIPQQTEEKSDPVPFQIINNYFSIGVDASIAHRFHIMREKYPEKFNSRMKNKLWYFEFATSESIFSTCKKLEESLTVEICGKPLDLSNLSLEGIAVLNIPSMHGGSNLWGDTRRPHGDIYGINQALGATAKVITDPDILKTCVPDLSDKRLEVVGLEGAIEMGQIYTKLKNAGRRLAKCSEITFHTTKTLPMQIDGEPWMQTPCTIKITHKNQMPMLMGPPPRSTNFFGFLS
Chain of human DGKζ (Q13574 whole entry, looked up): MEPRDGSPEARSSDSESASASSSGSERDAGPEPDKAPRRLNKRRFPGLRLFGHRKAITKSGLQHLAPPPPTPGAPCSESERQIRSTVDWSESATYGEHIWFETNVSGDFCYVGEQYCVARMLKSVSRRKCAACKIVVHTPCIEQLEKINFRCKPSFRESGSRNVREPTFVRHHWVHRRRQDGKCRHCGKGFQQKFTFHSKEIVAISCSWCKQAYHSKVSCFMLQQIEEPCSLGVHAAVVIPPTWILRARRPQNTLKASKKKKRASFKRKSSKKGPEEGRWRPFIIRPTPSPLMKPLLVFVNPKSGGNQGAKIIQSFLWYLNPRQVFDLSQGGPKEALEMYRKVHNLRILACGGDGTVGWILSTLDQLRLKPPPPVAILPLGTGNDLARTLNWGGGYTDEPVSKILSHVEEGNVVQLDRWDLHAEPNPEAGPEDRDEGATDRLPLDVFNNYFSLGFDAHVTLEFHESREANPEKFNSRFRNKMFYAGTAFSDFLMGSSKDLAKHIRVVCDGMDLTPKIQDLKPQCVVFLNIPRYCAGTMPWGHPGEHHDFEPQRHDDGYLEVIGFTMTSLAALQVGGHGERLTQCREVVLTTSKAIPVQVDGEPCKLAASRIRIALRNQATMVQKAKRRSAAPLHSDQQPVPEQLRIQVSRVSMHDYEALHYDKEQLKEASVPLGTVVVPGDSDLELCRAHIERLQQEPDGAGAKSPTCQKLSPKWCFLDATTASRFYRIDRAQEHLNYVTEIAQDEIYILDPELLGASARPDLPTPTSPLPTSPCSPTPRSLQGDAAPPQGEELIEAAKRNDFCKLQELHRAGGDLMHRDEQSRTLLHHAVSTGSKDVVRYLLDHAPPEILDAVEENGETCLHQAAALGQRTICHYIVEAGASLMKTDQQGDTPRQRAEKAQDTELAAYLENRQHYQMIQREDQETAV

`C[C@@H]1CN(c2cc(=O)n(C)c3ccc(C#N)nc23)CC[C@H]1Oc1cccc2c1OCCCO2` [Example 132, 8-((3R,4R)-4-((3,4-dihydro-2H-benzo[b][1,4]dioxepin-6-yl)oxy)-3-methylpiperidin-1-yl)-5-methyl-6-oxo-5,6-dihydro-1,5-naphthyridine-2-carbonitrile] was tested, and the IC50 (DGKα; [3]) was 0.011 µM and the IC50 (human DGKζ; read-out: DGKζ LIPGLO IC50) was 4.3 µM.
`CC[C@@H]1CN(c2cc(=O)n(C)c3ccc(C#N)nc23)CC[C@H]1Oc1cccc(C(F)(F)F)c1` [Example 140, 8-((3R,4R)-3-ethyl-4-(3-(trifluoromethyl)phenoxy)piperidin-1-yl)-5-methyl-6-oxo-5,6-dihydro-1,5-naphthyridine-2-carbonitrile] gave an IC50 (DGKα; [3]) of 0.13 µM and an EC50 [1, 4] of 1.2 µM.
`Cn1c(=O)cc(N2CCC(Oc3ccc(C(F)(F)F)cn3)CC2)c2nc(C#N)ccc21` [Example 77, 5-methyl-6-oxo-8-(4-((5-(trifluoromethyl)pyridin-2-yl)oxy)piperidin-1-yl)-5,6-dihydro-1,5-naphthyridine-2-carbonitrile] was tested, and the IC50 (DGKα; [3]) was 3 µM and the IC50 (human DGKζ; read-out: DGKζ LIPGLO IC50) was 3 µM.
Compound `C[C@@H]1CN(c2cc(=O)n(C)c3ccc(C#N)nc23)CC[C@@H]1Oc1ccc(OC(C)(C)C)cc1` (single isomer, unassigned) [Example 173] has an IC50 (DGKα; [3]) of 0.74 µM and an EC50 [1, 5] of 1.1 µM.
Compound `Cn1c(=O)cc(N2CCC(Oc3ccc(C4CCCCC4)cc3)CC2)c2nc(C#N)ccc21` [Example 63, 8-(4-(4-cyclohexylphenoxy)piperidin-1-yl)-5-methyl-6-oxo-5,6-dihydro-1,5-naphthyridine-2-carbonitrile] has an IC50 (DGKα; [3]) of 0.74 µM and an IC50 (human DGKζ; read-out: DGKζ LIPGLO IC50) of 38 µM.
Compound `CC[C@@H]1CN(c2cc(=O)n(C)c3ccc(C#N)nc23)CC[C@H]1Oc1cccc(OC(F)(F)F)c1` (single isomer, unassigned) [Example 162] has an IC50 (DGKα; [3]) of 1.7 µM and an IC50 (human DGKζ; read-out: DGKζ LIPGLO IC50) of 1.1 µM.
For `CC[C@@H]1CN(c2cc(=O)n(C)c3ccc(C#N)nc23)CC[C@H]1Oc1ccc(OC(C)C)cn1` (single isomer, unassigned) [Example 194], the IC50 (human DGKζ; Table A, read-out: DGKζ) was 1.8 µM, the EC50 [1, 6] was 1.8 µM and the EC50 [2] was 3 µM.
With `CCC(C)(C)c1ccc(O[C@@H]2CCN(c3c(C#N)c(=O)n(C)c4ccc(C#N)nc34)C[C@H]2C)cc1` (racemic) [Example 229, (+/−) 5-methyl-8-(trans-3-methyl-4-(4-(tert-pentyl)phenoxy)piperidin-1-yl)-6-oxo-5,6-dihydro-1,5-naphthyridine-2,7-dicarbonitrile] the IC50 (DGKα; Table A, liposome (LIPGLO) assay, read-out: DGKα) was 0.28 µM and the IC50 (human DGKζ; Table A, read-out: DGKζ) was ≥ 250 µM.
`C[C@@H]1CN(c2cc(=O)n(C)c3ccc(C#N)nc23)CC[C@@H]1Oc1ccc(C(C)(C)C)cc1` (racemic) [Example 175, 8-((3R,4S)-4-(4-(tert-butyl)phenoxy)-3-methylpiperidin-1-yl)-5-methyl-6-oxo-5,6-dihydro-1,5-naphthyridine-2-carbonitrile] was tested, and the EC50 [1, 4] was 1.4 µM and the IC50 [2, 7] was 0.8 µM.
Work on `C[C@@H]1CN(c2cc(=O)n(C)c3ccc(C#N)nc23)CC[C@@H]1Oc1cccc(C2CC2)c1` [Example 180, 8-((3R,4S)-4-(3-cyclopropylphenoxy)-3-methylpiperidin-1-yl)-5-methyl-6-oxo-5,6-dihydro-1,5-naphthyridine-2-carbonitrile] yielded an IC50 (DGKα; [3]) of 0.045 µM and an IC50 (human DGKζ; read-out: DGKζ LIPGLO IC50) of 1 µM.
`CC(C)c1ccc(O[C@H]2CCN(c3cc(=O)n(C)c4ccc(C#N)nc34)C[C@H]2C)nc1` (single isomer, unassigned) [Example 206] gave an EC50 [1, 6] of 0.41 µM and an EC50 [2] of 3.6 µM.
In the case of `COc1cc(F)ccc1OC1CCN(c2c(C#N)c(=O)n(C)c3ccc(Cl)nc23)CC1` [Example 36, 6-chloro-4-(4-(4-fluoro-2-methoxyphenoxy)piperidin-1-yl)-1-methyl-2-oxo-1,2-dihydro-1,5-naphthyridine-3-carbonitrile], the IC50 (DGKα; [3]) is reported as 1.6 µM and the IC50 (human DGKζ; read-out: DGKζ LIPGLO IC50) is reported as 32 µM.
In the case of `C[C@@H]1CN(c2cc(=O)n(C)c3ccc(C#N)nc23)CC[C@@H]1Oc1ccc(C(F)F)cn1` (single isomer, unassigned) [Example 210], the EC50 [1, 6] is reported as 1.2 µM and the EC50 [2] is reported as 13 µM.
`CC[C@@H]1CN(c2cc(=O)n(C)c3ccc(C#N)nc23)CC[C@H]1Oc1ccc(OC(C)C)cn1` (single isomer, unassigned) [Example 193] showed an IC50 (human DGKζ; Table A, read-out: DGKζ) of 2.2 µM, an EC50 [1, 6] of 0.37 µM and an EC50 [2] of 0.4 µM.
`C[C@@H]1CN(c2cc(=O)n(C)c3ccc(C#N)nc23)CC[C@H]1Oc1ccc(F)c(F)c1` (single isomer, unassigned) [Example 104] was tested, and the EC50 [1, 4] was 1.8 µM and the IC50 [2, 7] was 1.1 µM.
With `C[C@@H]1CN(c2cc(=O)n(C)c3ccc(C#N)nc23)CC[C@H]1Oc1ccc(OC(C)(C)C)cc1` [Example 87, 8-((3R,4R)-4-(4-(tert-butoxy)phenoxy)-3-methylpiperidin-1-yl)-5-methyl-6-oxo-5,6-dihydro-1,5-naphthyridine-2-carbonitrile] the IC50 (DGKα; [3]) was 0.05 µM and the EC50 [1, 5] was 2 µM.
For `CC(C)Oc1ccc(O[C@H]2CCN(c3cc(=O)n(C)c4ccc(C#N)nc34)C[C@H]2C)nc1` (racemic) [Example 228, (+/−) 8-(cis-4-((5-isopropoxypyridin-2-yl)oxy)-3-methylpiperidin-1-yl)-5-methyl-6-oxo-5,6-dihydro-1,5-naphthyridine-2-carbonitrile], the EC50 [1, 8] was 1.1 µM and the EC50 ([2]; Homo sapiens, CD8 positive) was 1.5 µM.
For `C[C@@H]1CN(c2cc(=O)n(C)c3ccc(C#N)nc23)CC[C@@H]1Oc1ccc(C(F)(F)F)cc1` (single isomer, unassigned) [Example 187, 5-methyl-8-(cis-3-methyl-4-(4-(trifluoromethyl)phenoxy)piperidin-1-yl)-6-oxo-5,6-dihydro-1,5-naphthyridine-2-carbonitrile (rel)], the EC50 [1, 6] was 1.7 µM and the EC50 ([2]; Homo sapiens, CD8 positive) was 1.8 µM.
`C[C@@H]1CN(c2cc(=O)n(C)c3ccc(C#N)nc23)CC[C@@H]1Oc1ccc(OC(C)(C)C)cc1` (single isomer, unassigned) [Example 174] was tested, and the IC50 (DGKα; read-out: DGKα LIPGLO IC50) was 1.6 µM and the EC50 [1, 5] was 3.6 µM.
In the case of `CCO[C@@H]1CN(c2cc(=O)n(C)c3ccc(C#N)nc23)CC[C@H]1Oc1cccc(C(F)(F)F)c1` [Example 263, 8-((3R,4R)-3-ethoxy-4-(3-(trifluoromethyl)phenoxy)piperidin-1-yl)-5-methyl-6-oxo-5,6-dihydro-1,5-naphthyridine-2-carbonitrile], the EC50 [1, 6] is reported as 0.18 µM and the EC50 ([2]; Homo sapiens, CD8 positive) is reported as 0.2 µM.
`C[C@@H]1CN(c2cc(=O)n(C)c3ccc(C#N)nc23)CC[C@H]1Oc1ccc(C(F)(F)F)cc1` (racemic) [Example 97, 5-methyl-8-((3R,4R)-3-methyl-4-(4-(trifluoromethyl)phenoxy)piperidin-1-yl)-6-oxo-5,6-dihydro-1,5-naphthyridine-2-carbonitrile] showed an EC50 [1, 4] of 1.9 µM and an IC50 [2, 7] of 3 µM.
`CC(C)Oc1ccc(O[C@@H]2CCN(c3cc(=O)n(C)c4ccc(C#N)nc34)C[C@H]2C)nc1` (single isomer, unassigned) [Example 201] was tested, and the EC50 [1, 6] was 0.92 µM and the EC50 [2] was 3.9 µM.
For `C[C@@H]1CN(c2cc(=O)n(C)c3ccc(C#N)nc23)CC[C@H]1Oc1ccc(F)c(F)c1` (racemic) [Example 103, 8-((3R,4R)-4-(3,4-difluorophenoxy)-3-methylpiperidin-1-yl)-5-methyl-6-oxo-5,6-dihydro-1,5-naphthyridine-2-carbonitrile], the EC50 [1, 4] was 1.5 µM and the IC50 [2, 7] was 5.5 µM.
`C[C@@H]1CN(c2cc(=O)n(C)c3ccc(C#N)nc23)CC[C@@H]1Oc1ccc(C(F)F)cn1` (single isomer, unassigned) [Example 209] showed an EC50 [1, 8] of 1.8 µM and an EC50 ([2]; Homo sapiens, CD8 positive) of 18 µM.
Work on `CC(C)Oc1ccc(O[C@@H]2CCN(c3cc(=O)n(C)c4ccc(C#N)nc34)C[C@H]2C)nc1` (single isomer, unassigned) [Example 200] yielded an EC50 [1, 8] of 1.5 µM and an EC50 ([2]; Homo sapiens, CD8 positive) of 3.3 µM.
In the case of `Cn1c(=O)cc(N2CCC(Oc3ccc(C(C)(C)C)cc3)CC2)c2cc(C#N)ccc21` [Example 53, 4-(4-(4-(tert-butyl)phenoxy)piperidin-1-yl)-1-methyl-2-oxo-1,2-dihydroquinoline-6-carbonitrile], the EC50 [1, 4] is reported as 1.8 µM and the IC50 [2, 7] is reported as 2.8 µM.
In the case of `C[C@@H]1CN(c2cc(=O)n(C)c3ccc(C#N)nc23)CC[C@H]1Oc1ccc(OC(C)(C)C)cc1` [Example 86, 8-((3R,4R)-4-(4-(tert-butoxy)phenoxy)-3-methylpiperidin-1-yl)-5-methyl-6-oxo-5,6-dihydro-1,5-naphthyridine-2-carbonitrile], the IC50 (DGKα; read-out: DGKα LIPGLO IC50) is reported as 0.72 µM and the EC50 [1, 5] is reported as 0.69 µM.
In the case of `CC[C@@H]1CN(c2cc(=O)n(C)c3ccc(C#N)nc23)CC[C@@H]1Oc1cccc(C(C)C)c1` [Example 164, 8-((3R,4S)-3-ethyl-4-(3-isopropylphenoxy)piperidin-1-yl)-5-methyl-6-oxo-5,6-dihydro-1,5-naphthyridine-2-carbonitrile], the EC50 ([1]; Homo sapiens, 24 h, read-out: INFg Whole Blood Normalized Agonist EC50, human whole blood, anti-CD3 plus anti-CD28, 24 hours) is reported as 0.79 µM and the IC50 ([2]; Homo sapiens, CD8 positive) is reported as 5.1 µM.
`C[C@@H]1CN(c2cc(=O)n(C)c3ccc(C#N)nc23)CC[C@@H]1Oc1ccc(OC(C)(C)C)cc1` [Example 172, 8-((3R,4S)-4-(4-(tert-butoxy)phenoxy)-3-methylpiperidin-1-yl)-5-methyl-6-oxo-5,6-dihydro-1,5-naphthyridine-2-carbonitrile] showed an IC50 (DGKα; read-out: DGKα LIPGLO IC50) of 0.62 µM and an EC50 [1, 4] of 1.5 µM.
